Data reported in PubChem BioAssay AID463199 (Broad Institute, 2010).
The source made the active and inactive calls.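 Rule for the calls: active = AC50, the dose giving half-maximal effect, exceeds a fixed cutoff for a compound that rescues yeast growth under heat; inactive = the rest, inconclusive results apart.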

Test system: S. cerevisiae Burl-1 ts mutant growth, BacTiter-Glo, 38.5C 24 h
Experiment: restored growth of temperature-sensitive Burl-1 yeast – whole organism, S. cerevisiae, Burl-1 ts mutant, luminescence, counter-screen for SUMOylation pathway inhibitor project, dose response (AID 463199)

| SMILES | AC50 |
| --- | --- |
| COc1cccc(CN2CCN(C(=O)c3cccc4ccccc34)CC2)c1OC | > 42 µM (inactive) |
| O=S(=O)(NCCN1CCCC1)c1cccc2cccnc12 | > 42 µM (inactive) |
| CN(C)c1ccnc2sc3c(NCC(O)CO)ncnc3c12 (centres undefined) | > 42 µM (inactive) |
| Cc1c(OC(C)C(=O)N2C[C@H]3C[C@@H](C2)c2cccc(=O)n2C3)ccc2c3c(c(=O)oc12)CCCC3 (some centres undefined) | > 42 µM (inactive) |
| CCc1nnc(NC(=O)CSc2ccc(-c3ccc(-n4cccn4)cc3)nn2)s1 | > 42 µM (inactive) |
| Cc1cc2c(cc1C)-c1nnc(-c3ccc4ccccc4n3)n1C(C)(C)C2 | > 42 µM (inactive) |
| CCOC(=O)N1CCN(C(=O)CNC(=O)c2nn(-c3ccc(OC)c(OC)c3)c(=O)c3ccccc23)CC1 | > 42 µM (inactive) |
| COc1ccc(OC)c(N(CC(=O)N2CCCC2)S(=O)(=O)c2ccccc2)c1 | > 42 µM (inactive) |
| COc1cc(NC(=O)CN2CCN(CC(=O)Nc3ccccc3OC)CC2)cc(OC)c1 | > 42 µM (inactive) |
| CC(=O)Nc1ccc(S(=O)(=O)N(C)CC(=O)Nc2ccc(Br)cc2F)cc1 | > 42 µM (inactive) |
| COc1ccc(OCC(=O)Nc2ccc(C)cc2)cc1 | > 42 µM (inactive) |
| O=C(NC1CCCC1)C(c1cccs1)N(C(=O)c1ccno1)c1ccccc1 (centres undefined) | > 42 µM (inactive) |
| O=C(CN1CCN(Cc2ccc(F)cc2)CC1)NCc1ccccc1 | > 42 µM (inactive) |
| CCOC(=O)c1c(N)sc(C(=O)N2CCCC(C(N)=O)C2)c1C (centres undefined) | > 42 µM (inactive) |
| CCCCCCCCCCOC(=O)Cn1c(COc2ccccc2OC)[n+](C)c2ccccc21 | > 42 µM (inactive) |
| CCC1CCCCN1C(=O)CSc1nc2c([nH]c3ccccc32)c(=O)n1C (centres undefined) | > 42 µM (inactive) |
| CN(C)c1cccc(C(=O)Nc2cc(C(F)(F)F)ccc2-n2cnc3ccccc32)c1 | > 42 µM (inactive) |
| O=C(NC1CCCCC1)c1ccc2snnc2c1 | > 42 µM (inactive) |
| CC(C)C(=O)Nc1ccc(-c2nc3cccnc3o2)cc1 | > 42 µM (inactive) |
| COc1cc(S(=O)(=O)N2CCN(c3ccccc3)CC2)ccc1F | > 42 µM (inactive) |
| O=C(CN(CC1CCCO1)C(=O)CNS(=O)(=O)c1ccc(F)cc1)NCc1ccccc1 (centres undefined) | > 42 µM (inactive) |
| C/C(=C\C(=O)N1CCc2ccccc21)C(=O)O | > 42 µM (inactive) |
| CCOc1ccccc1Nc1nnc(SCc2nnc(-c3cc(OC)c(OC)c(OC)c3)o2)s1 | > 42 µM (inactive) |
| COc1ccc(S(=O)(=O)N2CCOC2CNC(=O)C(=O)NCc2ccncc2)cc1C (centres undefined) | > 42 µM (inactive) |
| CCC(=O)Nc1ccc(S(=O)(=O)NCc2ccco2)cc1 | > 42 µM (inactive) |

| SMILES | AC50 |
| --- | --- |
| Cc1ccc(N(CC(=O)NC2CCCC2)C(=O)CCC(=O)Nc2ccccn2)cc1C | > 42 µM (inactive) |
| CCN(CC)CCCn1c(=S)[nH]c2ccc(Cl)cc2c1=O | 38.6 µM |
| CCOc1ccc(CCNC(=O)COC(=O)c2cccc(OC)c2O)cc1OCC | > 42 µM (inactive) |
| Nc1ccc(NC(=O)c2ccco2)c(Cl)c1 | > 42 µM (inactive) |
| Cc1nn(C)cc1S(=O)(=O)Nc1ncccn1 | > 42 µM (inactive) |
| CCOc1ccc(NC(=O)C2CC(=O)N3CCCN=C3S2)cc1 (centres undefined) | > 42 µM (inactive) |
| O=C(CN1CCc2ccccc21)NN1CC(=O)N(c2ccc(Cl)cc2)CC1=O | > 42 µM (inactive) |
| CCCCNS(=O)(=O)c1ccc(OC)cc1 | > 42 µM (inactive) |
| O=C(CSc1nccc(=O)[nH]1)c1cc2ccccc2o1 | > 42 µM (inactive) |
| CN(C)C(CNC(=O)CNC(=O)c1ccc(Br)cc1)c1ccccc1 (centres undefined) | > 42 µM (inactive) |
| COc1cccc(/C=C/C(=O)OCC(=O)Nc2ccc(Cl)cn2)c1 | > 42 µM (inactive) |
| Cc1cc(C)n(CCOC(=O)C2C(C=C(Cl)Cl)C2(C)C)n1 (centres undefined) | > 42 µM (inactive) |
| CC1(OC(=O)CCc2ccccc2)C(=O)C=C2C=C(c3ccc(C#N)cc3)N(C3CCCC3)C=C2C1=O (centres undefined) | > 42 µM (inactive) |
| N=c1c2c(n(Cc3ccc(Cl)c(Cl)c3)c3c1CCC3)CCCC2 | > 42 µM (inactive) |
| c1ccc2cc(Cn3ccnc3)ccc2c1 | > 42 µM (inactive) |
| O=C(Nc1ccc([N+](=O)[O-])cn1)C1CC1 | > 42 µM (inactive) |
| Oc1cccc2ccc(/C=C/c3ccccc3Br)nc12 | > 42 µM (inactive) |
| COC(C(=O)Nc1ccnn1C1CCN(Cc2cnn(C)c2)CC1)c1ccccc1 (centres undefined) | > 42 µM (inactive) |
| CN(C)c1oc(-c2ccccc2Cl)nc1S(=O)(=O)c1ccccc1 | > 42 µM (inactive) |
| Cc1ccc2c(c1)C(O)(CC(=O)c1cccnc1)C(=O)N2 (centres undefined) | > 42 µM (inactive) |
| CC(C)CC(c1nnnn1C1CCCCC1)N1CCN(C(=O)c2ccco2)CC1 (centres undefined) | > 42 µM (inactive) |
| O=C(CSc1nnc(-c2cccs2)n1-c1ccccc1)c1ccc2c(c1)OCCO2 | > 42 µM (inactive) |
| COc1cccc(-n2c(SCC(=O)NC3CCCCC3)nc3n[nH]c(C)c3c2=N)c1 | > 42 µM (inactive) |
| N#CC(C#N)=CN=c1ccn(Cc2ccc(Cl)cc2Cl)cc1 | > 42 µM (inactive) |
| O=C(CCC(=O)Nc1ccc(F)cc1)N/N=C/c1cccs1 | > 42 µM (inactive) |

| SMILES | AC50 |
| --- | --- |
| COc1ccc(C(=O)N/C(=C\c2cn(C)c3ccccc23)C(=O)OCCN(C)C)cc1 | > 42 µM (inactive) |
| Cc1cccc(N=C2C(=O)Nc3c(Cl)cccc32)c1 | > 42 µM (inactive) |
| C[C@@]12C(=O)Nc3ccc(F)cc3C(=O)N1[C@H]1c3cc(Cl)ccc3OC[C@@H]1[C@@H]2c1ccccc1 | > 42 µM (inactive) |
| CC(C)C(=O)NNc1ccc(C(F)(F)F)cn1 | > 42 µM (inactive) |
| COc1cc2c(cc1OC)C(c1ccccc1[N+](=O)[O-])N(C(C)=O)CC2 (centres undefined) | > 42 µM (inactive) |
| Cc1ccc(CSCCNC(=O)c2ccc(NS(C)(=O)=O)cc2)cc1 | > 42 µM (inactive) |
| Cc1ccc(C)c(NC(NC(=O)c2ccccn2)C(Cl)(Cl)Cl)c1 (centres undefined) | > 42 µM (inactive) |
| COC(=O)c1ccc(Cn2cc(Cl)cn2)cc1 | > 42 µM (inactive) |
| COc1cc(/C=N/NC(=O)c2cccc([N+](=O)[O-])c2)ccc1O | > 42 µM (inactive) |
| Cc1ccccc1Cn1cc(NC(=O)c2cc3nc(-c4ccco4)cc(C(F)(F)F)n3n2)cn1 | > 42 µM (inactive) |
| CCCOc1ccc([N+](=O)[O-])c(N)c1 | > 42 µM (inactive) |
| CC(=O)N1CCC2(CC1)CC(=O)c1cc(OCC(=O)N3CCCC3)ccc1O2 | > 42 µM (inactive) |
| Cc1ccccc1OCc1nc(-c2ccccc2)no1 | > 42 µM (inactive) |
| CCCC(=O)N(CCN1CCOCC1)c1nc2ccc(OCC)cc2s1 | > 42 µM (inactive) |
| O=C(CSc1nc2ccc(Nc3nc(N4CCOCC4)nc(N4CCOCC4)n3)cc2s1)N1CCOCC1 | > 42 µM (inactive) |
| COc1ccc(-c2cc(C#N)nc(N3CCN(c4ccccc4)CC3)n2)cc1 | > 42 µM (inactive) |
| Cc1c(N=Cc2cc(Br)cc(Br)c2O)cccc1C(=O)O | > 42 µM (inactive) |
| CCOC(=O)C(C)(C)Sc1nc2c(cnn2-c2ccc(C)cc2)c(=O)[nH]1 | > 42 µM (inactive) |
| Cc1cccc(N2CN=c3s/c(=C\c4ccccn4)c(=O)n3C2)c1 | > 42 µM (inactive) |
| CN(C)S(=O)(=O)c1ccc(C(=O)/C=C/c2cccnc2)cc1 | > 42 µM (inactive) |
| O=C(c1ccc(F)cc1)C(CN1CCOCC1)c1ccccc1 (centres undefined) | > 42 µM (inactive) |
| N#C/C(=N\Nc1cccc(F)c1)C(=N)N1CCCCCC1 | > 42 µM (inactive) |
| CC1CCN(CCCCOc2cccc(Br)c2)CC1 | > 42 µM (inactive) |
| Cc1sc(NC(=O)CSC2=NCCS2)nc1-c1ccccc1 | > 42 µM (inactive) |
| CCNc1ccc(S(=O)(=O)N(C)C)cc1NCC(=O)Nc1ccccc1Br | > 42 µM (inactive) |

| SMILES | AC50 |
| --- | --- |
| Cc1ccc(O)c(CNc2nc3ccccc3n2C)c1 | > 42 µM (inactive) |
| COC(=O)CSc1ccc(S(=O)(=O)N2CCCCCC2)cc1[N+](=O)[O-] | > 42 µM (inactive) |
| CCC(C)(C)n1nnnc1C(c1cccnc1)N1CCC(Cc2ccccc2)CC1 (centres undefined) | > 42 µM (inactive) |
| CC12CC3(C)CC(C)(C1)CC(C(=O)NC(=S)N1CCCC1)(C2)C3 | > 42 µM (inactive) |
| COc1ccccc1NC(=S)N(Cc1ccco1)Cc1cc2cccc(C)c2[nH]c1=O | > 42 µM (inactive) |
| COc1ccccc1NS(=O)(=O)c1cc(Cl)ccc1OC | > 42 µM (inactive) |
| CCOC(=O)c1ccccc1NC(=O)C1CC(=O)N(C2CCCCC2)C1 (centres undefined) | > 42 µM (inactive) |
| CCN(CC)S(=O)(=O)c1ccc(C(=O)NCCc2cc3c(OC)ccc(OC)c3[nH]c2=O)cc1 | > 42 µM (inactive) |
| CCn1cc(C(=O)N(C)c2ccc(OC)cc2OC)c2cc(OC)c(OC)cc2c1=O | > 42 µM (inactive) |
| CC1CCCCC1N=CC1=C(O)CC(C)(C)CC1=O (centres undefined) | > 42 µM (inactive) |
| CC1C(=O)CC(c2ccccc2)N(C)C1c1ccccc1 (centres undefined) | > 42 µM (inactive) |
| CCCNc1nc2ccccc2c(=O)[nH]1 | > 42 µM (inactive) |
| COc1ccc(C)cc1NC(=S)N1CCN(c2ccccn2)CC1 | > 42 µM (inactive) |
| CCOc1cc(/C=C2\NC(=O)NC2=O)ccc1OC(C)C(=O)O (centres undefined) | > 42 µM (inactive) |
| Cc1ccc(C(=O)c2cc([N+](=O)[O-])ccc2N2CCCCC2)cc1C | > 42 µM (inactive) |
| CCCC(=O)Nc1ccc(Sc2ccc([N+](=O)[O-])cc2)cc1 | > 42 µM (inactive) |
| O=C(Nc1ccc2ccccc2c1)N1CCCN(CCOc2ccccc2)CC1 | > 42 µM (inactive) |
| CCC(=O)N(Cc1ccc2c(c1)OCO2)Cc1cc2cc(OC)ccc2[nH]c1=O | > 42 µM (inactive) |
| Cc1ccc(C(=O)NCCCNC(=O)c2ccc(C)nc2)cc1 | > 42 µM (inactive) |
| CCOC(=O)c1cc2c(ccn2-c2ccc(F)cc2)n1CC(=O)N1CCN(C(=O)c2ccco2)CC1 | > 42 µM (inactive) |
| O=C(CN1CCN(C(=O)c2ccccc2)CC1)Nc1ncc(Br)cc1Br | > 42 µM (inactive) |
| CS(=O)(=O)N(CCc1ccccc1)CC(=O)NCc1cccnc1 | > 42 µM (inactive) |
| COC(=O)C1CN(C(=O)C(C)Oc2ccc(F)cc2)c2ccccc2O1 (centres undefined) | > 42 µM (inactive) |
| O=C(c1cc(Cl)c(=O)n(Cc2ccc(Cl)cc2)c1)N1CCOCC1 | > 42 µM (inactive) |
